One data set concerns B16/BL6 cells. Briefly: MHC class-I molecule expression promoting activity. As to conditions: mean of a plurality of assays; 72 hours. It is filed as cell-based, mouse.
Data set [1] concerns mouse malignant melanoma B16/BL6 cell line. Type of data set: cell-based. As to conditions: 72 hours; read-out: 50% proliferation inhibiting concentration B16/BL6 (nM) mean. From the text: In order to verify the action of the cyclic tetrapeptide derivative according to the present invention in inhibiting cell proliferation in cancerized cells, the action on the proliferation of the aforementioned B16/BL6 cells was investigated. The evaluation of cell proliferation rates was done utilizing a commercially available measuring kit, specifically, from Promega under the trade name CellTiter 96 Aqueous Non-Radioactive Proliferation Assay Kit. In the measuring kit, the amount of products through reduction of a reagent tetrazolium compound (3-(4,5-dimethylthiazol-2-yl)-5-(3-carboxymethoxyphenyl)-2-(4-sulfophenyl)-2H-tetrazolium, inner salt; MTS) by viable animal cells is determined by detecting spectrophotometrically the color generated from the products. Since the amount of products is proportional to the amount of viable cells, this kit is utilized to evaluate the amount of viable cells.
According to the procedure of Test Example 1, B16/BL6 cells are inoculated in a 96 well microplate and cultured for 24 hours. […] Thereafter, culture is continued for additional 48 hours and 20 μl of a reagent solution in the aforementioned CellTiter 96 Aqueous Non-Radioactive Proliferation Assay Kit is then added. After incubation is continued at 37° C. for 1 hour, the amount of color generation is measured as an absorbance at 490 n musing a microplate reader.
The amount of cell proliferation of a group to which a compound to be tested is added is expressed in a relative value as compared to the standard cell proliferation (100%) in a control group to which no compound to be tested is added. For each compound tested, the amounts of cell proliferation were measured at different concentrations of addition and the dependence of the quantitative cell proliferation on the concentration of addition was investigated.
The test method was in accordance with the above-mentioned procedure, except that the period of incubation after the addition of a compound was 72 hours.

The target of the next data set is histone deacetylase. Briefly: Histone deacetylase enzyme inhibiting activity, synthetic peptide substrate. It is filed as biochemical, mouse. To be noted: enzyme from B16/BL6 cells; [3H]acetylated histone H4 peptide; 37° C. 3 hours. In short, it runs like this: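 Crude HDAC was partially purified from B16/BL6 cell nuclei by ammonium sulfate precipitation and gel filtration. Enzyme was incubated with [^3H]acetylated histone H4 N-terminal peptide and compound at 37° C. for 3 h. Released [^3H]acetate was ethyl acetate-extracted and counted, giving IC50 versus the no-compound control.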

Another data set concerns B16. Briefly: In vivo anti-cancer activity in mouse (ascites tumor system). To be noted: for Median Survival days (T/C %): B16 ascites, BDF1 mouse. Here is the method:
(§1) With respect to an ascites tumor system, in vivo anti-cancer activity of the cyclic tetrapeptide compounds according to the present invention was evaluated using cancer-carrying mouse. The cancer cells used were L1210, B16, Colon26and MH134. These cancer cells were cultured in a conventional manner and suspended in PBS, and 10^5 cells of L1210, or 10^6 cells of B16, Colon26 or MH134 were intraperitoneally transplanted into each mouse (100 μl/mouse). The mouse used was CDF1, BDF1, CDF1 or C3H/HeN (male, 7 weeks in age) for L1210, B16, Colon 26or MH134, respectively. Drug administration was started from the day next to the transplantation of cancer cells. For L1210, 0.5% carboxymethyl cellulose Na suspension and for other cancer cells, PBS solution (actually, as suspension neutralized with NaOH) were continuously administered everyday (100 μl/mouse). The period of administration was 4 days for L1210, 9 days for B16 and MH134, and 8 days for Colon26.
(§2) After the administration period passed, the mice administered were bred and median survival days were calculated on the basis of the number of days from the transplantation of cancer cells to death. The percent ratio (T/C%) between the median survival days (C) for a control group to which an equal amount of a drug-free solution was administered and the median survival days (T) of the treated group administered with the drug was determined.

The next data set deals with Colon26. The data set is described as above. As to conditions: for Median Survival days (T/C %): Colon26 ascites, CDF1 mouse. Here is the method:
as §1, §2

The subject of the next data set is L1210. The data set is described as above. To be noted: for Median Survival days (T/C %): L1210 ascites, CDF1 mouse. Here is the method:
as §1, §2

In the next data set the test system is MH134. Described as above. To be noted: for Median Survival days (T/C %): MH134 ascites, C3H/HeN mouse. Here is the method: as §1, §2
The conditions of data set [2]: rat, in vivo, 10 mg/kg. Here is the method:
Under anesthesia with Ketamine/Kylazine mixture, SD rats were administered with HDA-31 into the tail vein (10 mg/kg; 2 ml/kg). The drug was dispersed in PBS and neutralized with NaOH and the resulting suspension was used. After administration, blood was taken from the carotid artery at a given interval of time (using heparin as an anti-coagulant) and centrifuged to prepare plasma. HDA-31 in the plasma was extracted with MTBE (methyl-t-butyl-ether) and separated by reverse-phase HPLC and a peak area corresponding to HDA-31 was quantitatively determined with a mass spectrometer.

Setting [3] is: 0.015 mg/mouse everyday for 9 days.
Where [4] appears, read: 0.05 mg/mouse everyday for 9 days.
[5] abbreviates: 0.15 mg/mouse everyday for 9 days.

Non-standard residues stand in square brackets, D forms with d. Residues, ends and D or L forms follow the SMILES beside them. *: point of attachment. Asu = N[C@@H](CCCCCC(=O)O)C(=O)O; NHOH = ON*

The results in this text go back to patent publication US6399568B1, “Cyclic tetrapeptide derivatives and medicinal use thereof” (Japan Energy Corporation, priority 1997, dated 2002).

On to `CC[C@H](C)[C@@H]1NC(=O)[C@@H](Cc2ccc(OC)cc2)NC(=O)[C@H](CCCCCC(=O)NO)NC(=O)[C@H]2CCCN2C1=O` [HDA-31, cyclo(-L-Asu(NHOH)-D-Tyr(Me)-L-Ile-D-Pro-)] (cyclo([Asu](NHOH)[dY](Me)I[dP])), for which the “conc. for 2-fold expression (nM) mean” value in the data set with B16/BL6 cells turned out to be 1.41 nM. The IC50 was 5.43 nM in data set [1] and 3.32 nM at histone deacetylase. The life-saving effect entry with B16 (B16 ascites tumor) was “obviously exhibited a life-saving effect”; with Colon26 (Colon26 ascites tumor), “no life-saving effect was observed”; in the data set with L1210 (L1210 ascites tumor), “obviously exhibited a life-saving effect”; with MH134 (MH134 ascites tumor), “no life-saving effect was observed”. Also, the “Median Survival days (T/C %)” value came out at 117% in the data set with B16 (setting [3]); 119% in the data set with B16 (setting [4]); 139% with B16 (setting [5]); 90.9% in the data set with Colon26 (0.015 mg/mouse everyday for 8 days); 86.4% with Colon26 (0.05 mg/mouse everyday for 8 days); 63.6% in the data set on Colon26 (0.15 mg/mouse everyday for 8 days). Further, the “Median Survival days (T/C %)” value in the data set on L1210 (0.015 mg/mouse everyday for 4 days) is 113%; in the data set on L1210 (0.15 mg/mouse everyday for 4 days) it was 125%; in the data set on L1210 (1.5 mg/mouse everyday for 4 days), 37.5%; in the data set with MH134 (setting [3]), 95.8%; in the data set on MH134 (setting [4]) it was 85.4%; in the data set with MH134 (setting [5]), 91.7%. In addition, in data set [2], the “concentration in blood (plasma) after intravenous administration” value is on record as “concentrations in blood exceeding the stated effective concentrations were maintained over a few hours”.
